Non-standard residues stand in square brackets, D forms with d. Primed or numbered codes have the meaning given here. No end group written: not given here. PEG12′ = polyethylene glycol moiety of 12 units
Assays:
3T3-L1 mouse adipocytes = experiment: Free fatty acid levels in cultured 3T3-L1 mouse adipocytes and insulin dependence (Example 17); format: cell-based; conditions: isoproterenol 0.1 nM; for Free Fatty Acid Levels, Percent of Isoproterenol Control Activity No Insulin: peptide 10 μM alone, relative to isoproterenol treated cells; for Free Fatty Acid Levels, Percent of Isoproterenol Control Activity With Insulin: peptide 10 μM with 0.25 nM insulin, relative to 0.25 nM insulin treated cells
Method: The effect of the peptides on fatty acid metabolism can be assessed using an assay to monitor free fatty acid levels produced by cultured cells such as mouse adipocytes. […] Following 3 h incubation, conditioned medium from each well was transferred to a fresh 96-well plate. […] Absorbance values were expressed as percent control activity relative to 0.1 nM isoproterenol treated cells (no insulin) for 10 μM peptide alone or 0.25 nM insulin treated cells (with insulin) for 10 μM peptide in presence of 0.25 nM insulin. […] Data are presented as averages values from 2-3 independent experiments with each data point performed in triplicate.

C2C12 cells [1] = experiment: Glucose utilization in cultured C2C12 cells and insulin dependence; format: cell-based, mouse; conditions: for Glucose Utilization, Percent of Control Activity No Insulin: peptide 10 μM alone, glucose in medium relative to untreated cells; for Glucose Utilization, Percent of Control Activity No Insulin / Glucose Utilization, Percent of Control Activity With Insulin: 22 h; for Glucose Utilization, Percent of Control Activity With Insulin: peptide 10 μM with 5-20 nM insulin, glucose in medium relative to insulin treated cells
Excerpt: The effect of the peptides on glucose homeostasis can be assessed using an assay to monitor glucose utilization by cultured cells such as mouse myotubes. […] C2C12 mouse muscle cell line was purchased from Millipore Sigma (Saint Louis, Mo.). […] Three days after plating the medium was removed and with Differentiation Medium (DMEM/low glucose (1 g/L)+2% Horse Serum+antibiotics) added. […] After 5 days of differentiation, the medium was removed from myotube cultures and replaced with Assay Medium (DMEM/low glucose (1 g/L)+antibiotics). […] Following the 5 h incubation the medium was removed and fresh Assay Medium containing compounds added; 10 μM peptide in absence or presence of 5-20 nM insulin, or 1 mM metformin as a potent stimulator of glucose utilization. […] Following 22 h incubation, conditioned medium from each well was transferred to a fresh 96-well plate. Glucose concentrations in the medium were determined using a Glucose Assay kit (Abcam; Cambridge, Mass.) according to the manufacturer's instructions; absorbance measured using a Cytation 3 plate reader at 570 nm (BioTek, Winooski, Vt.). Absorbance values were expressed as percent control activity relative to untreated treated cells (no insulin) for 10 μM peptide alone or 5-20 nM insulin treated cells (with insulin) for 10 μM peptide in presence of 5-20 nM insulin. Untreated cells were used as reference for basal glucose utilization. The relative standard deviation from plate to plate of untreated control was <10%. Metformin at 1 mM was used as a potent control for increasing glucose utilization. Glucose levels for metformin (1 mM) treatment were <10% of the untreated control value. Data are presented as averages values from 2-3 independent experiments with each data point performed in triplicate.

H4-IIE cells = experiment: Glucose production in cultured H4-IIE cells and insulin dependence; format: cell-based, rat; conditions: 24 h; for Glucose Production, Percent of Control Activity No Insulin: peptide 10 μM alone, relative to untreated cells; for Glucose Production, Percent of Control Activity With Insulin: peptide 10 μM with 800 μM insulin, relative to insulin treated cells
Method: The effect of the peptides on glucose homeostasis can be assessed using an assay to monitor glucose production by cultured cells such as rat hepatocytes. […] Following 24 h incubation, conditioned medium from each well was transferred to a fresh 96-well plate. Glucose concentrations in the medium were determined using a Glucose Assay kit (Abcam; Cambridge, Mass.) according to the manufacturer's instructions; absorbance measured using a Cytation 3 plate reader at 570 nm (BioTek, Winooski, Vt.). […] Untreated cells were used as reference for maximal glucose production. […] Insulin at 800 μM was used as a modest inhibitor glucose production. […] Data are presented as averages values from 2-4 independent experiments with each data point performed in triplicate.

C2C12 cells [2] = experiment: ATP levels in cultured C2C12 cells (CellTiter-Glo); format: cell-based, mouse; conditions: lovastatin 10 μM, positive control
Method: The effect of the peptides on cellular metabolism can be assessed using an assay of ATP levels in cultured cells such as mouse myoblast cells. Peptides were initially prepared as 10 mM stock in DMSO, diluted to 1 mM in H2O, and used at a final concentration of 10 μM (0.1% DMSO). […] Lovastatin was prepared as 10 mM stock in 70% Ethanol and used at final concentration of 10 μM containing 0.1% DMSO. CellTiter-Glo® Assay kit was purchased from Promega (Madison, Wis.). […] C2C12 cells were grown in DMEM medium supplemented with 20% FBS with 100 IU/ml penicillin and 100 μg/ml streptomycin. […] C2C12 cells were seeded at 800 cells per well on 96-well plates. […] ATP levels were determined using a CellTiter-Glo Assay kit according to the manufacturer's instructions. Luminescence for each sample well on the plate was measured using a Cytation 3 plate reader (BioTek, Winooski, Vt.). Activity was calculated relative to 0.1% DMSO treated control. The relative standard deviation of the result for the 0.1% DMSO treated control was <5%. […] ATP levels for treatment with lovastatin (10 μM) were <50% of the 0.1% DMSO treated control value.

C2C12 cells [3] = experiment: Cell proliferation in C2C12 cells (Cyquant DNA dye binding); format: cell-based, mouse; conditions: lovastatin 10 μM, growth arrest control
Method: The effect of the peptides on cell proliferation was assessed using a DNA dye binding assay in cultured cells such as mouse myoblast cells. Peptides were initially prepared as 10 mM stock in DMSO, diluted to 1 mM in H2O, and added at a final concentration of 10 μM (0.1% DMSO). Lovastatin was used as a growth arrest control at final concentration of 10 μM. […] C2C12 cells were grown in DMEM supplemented with 20% FBS with 100 IU/ml penicillin and 100 μg/ml streptomycin. […] C2C12 cells were seeded at 800 cells per well on 96-well plates. […] Cell proliferation was determined using Cyquant Direct Nucleic Acid Stain (Thermo Fisher Scientific, Waltham, Mass.) according to the manufacturer's instructions. Fluorescence for each sample well on the plate was measured using a Cytation 3 plate reader at Ex/Em=495/535 nm (BioTek, Winooski, Vt.). Activity was calculated relative to 0.1% DMSO untreated control. The relative standard deviation for the lovastatin control was <27%. The cell proliferation for the lovastatin control was <25% of the value for untreated control.

| Molecule | Free Fatty Acid Levels, Percent of Isoproterenol Control Activity No Insulin (3T3-L1 mouse adipocytes) [%] | Free Fatty Acid Levels, Percent of Isoproterenol Control Activity With Insulin (3T3-L1 mouse adipocytes) [%] | Glucose Utilization, Percent of Control Activity No Insulin (C2C12 cells [1]) [%] | Glucose Utilization, Percent of Control Activity With Insulin (C2C12 cells [1]) [%] | Glucose Production, Percent of Control Activity No Insulin (H4-IIE cells) [%] | Glucose Production, Percent of Control Activity With Insulin (H4-IIE cells) [%] | ATP levels, % of 0.1% DMSO treated control value (C2C12 cells [2]) [%] | Cell proliferation, % of value for untreated control (C2C12 cells [3]) [%] | Glucose levels, % of untreated control value (C2C12 cells [1]; metformin 1 mM, positive control) [%] |
| --- | --- | --- | --- | --- | --- | --- | --- | --- | --- |
| 31 (RRMEVYQCLCG[dA]; not fully specified; printed as RRMEVYQCLCG(dA); cysteine pairing not given here) [compound 31] | 113 | 94.6 | 103.7 | 99.2 | 95.5 | 108.3 | – | – | – |
| 28 (RRMGYQCLEG[dA]) [compound 28] | 109 | 57.8 | 103.3 | 88.2 | 107.4 | 91.4 | – | – | – |
| 20 (KRRMMGMVFQCLCGA; (1)..(1) PEG12; (15)..(15) d-Ala) [compound 20] | 101 | 90.7 | 108 | 91 | 98.4 | 108.6 | – | – | – |
| 22 (RRMVYQCLCG[dA]; cysteine pairing not given here) [compound 22] | 107 | 61.9 | 100.9 | 79.8 | 109.8 | 49.1 | – | – | – |
| 26 (RREMVYQCLEG[dA]) [compound 26] | 104 | 52.8 | 102.2 | 98.4 | 111.5 | 103.1 | – | – | – |
| 23 (RRMVFQCLEG[dA]) [compound 23] | 104 | 57.7 | 102 | 86.6 | 104.3 | 57.7 | – | – | – |
| 32 (RRMEVYQCLEG[dA]) [compound 32] | 108 | 62.9 | 103.8 | 85.0 | 99.5 | 81.9 | – | – | – |
| 24 (RRMVYQCLEG[dA]) [compound 24] | 108 | 59.2 | 98.8 | 85.8 | 107.6 | 61.9 | – | – | – |
| CC[C@H](C)C(=O)O[C@H]1C[C@@H](C)C=C2C=C[C@H](C)[C@H](CC[C@@H]3C[C@@H](O)CC(=O)O3)[C@H]21 [lovastatin, reference compound] | – | – | – | – | – | – | < 50 | < 25 | – |
| CN(C)C(=N)N=C(N)N [metformin, reference compound] | – | – | – | – | – | – | – | – | < 10 |
| 29 (RRMMGMVYQCLEG[dA]) [compound 29] | 110 | 52.8 | 99.2 | 92.3 | 113.9 | 148.6 | – | – | – |
| 21 (RRMMGMVFQCLCG[dA]K(PEG12′); cysteine pairing not given here) [compound 21] | 109 | 59.1 | 107.5 | 86 | 98.4 | 72.7 | – | – | – |
| 27 (RRMAYQCLEG[dA]) [compound 27] | 108 | 74.2 | 101.2 | 106.2 | 101.7 | 98.9 | – | – | – |
| 25 (RREMVYQCLCG[dA]; cysteine pairing not given here) [compound 25] | 110 | 67.4 | 99.9 | 77.4 | 108.2 | 65.2 | – | – | – |
| 30 (RRMMGMVAQCLEGA; (14)..(14) RRMMGMVAQCLEG(A) [compound 30] | 102 | 56.0 | 97.7 | 88.3 | 105.7 | 65.7 | – | – | – |

From US20220324909A1, “THERAPEUTIC PEPTIDES” (COHBAR, INC., priority 2019, published 2022)
